Assay: Pharmacokinetics: toenail and plasma ravuconazole concentrations
Format: in vivo, human
Experimental: A Phase II clinical pharmacology study was conducted in subjects with onychomycosis of the toenail. The study investigated the pharmacokinetics, efficacy and safety of three different dosing regimens of fosravuconazole. […] The three treatment groups were as follows: • a.

[1] = fosravuconazole 100 mg (once daily dose) group
[2] = fosravuconazole 400 mg (pulse treatment) group

C[C@@H](c1nc(-c2ccc(C#N)cc2)cs1)[C@](O)(Cn1cncn1)c1ccc(F)cc1F [ravuconazole, 4-[2-[(2R,3R)-3-(2,4-difluorophenyl)-3-hydroxy-4-(1,2,4-triazol-1-yl)butan-2-yl]-1,3-thiazol-4-yl]benzonitrile]
time toenail ravuconazole concentrations maintained at MIC90 or higher, longer than in 400 mg (pulse treatment) group [1]: about 4 weeks | toenail ravuconazole concentrations versus MIC90, arithmetic mean [1]: exceeded MIC90 in arithmetic mean at Week 8 and maintained at MIC90 or higher until Week 28 | toenail ravuconazole concentrations versus MIC90, geometric mean [1]: exceeded MIC90 at Week 12 after the study treatment initiation and maintained at MIC90 or higher until Week 24 | toenail ravuconazole concentrations compared with 400 mg (pulse treatment) group (fosravuconazole 100 mg (once daily dose) group, Week 20 and onwards): fluctuated at higher levels | toenail ravuconazole concentrations, arithmetic mean and geometric mean (fosravuconazole 200 mg (pulse treatment) group): ≤ 60 ng/mL | toenail ravuconazole concentrations versus MIC90, arithmetic mean [2]: exceeded MIC90 in arithmetic mean at Week 8 after the study treatment initiation and maintained at MIC90 or higher until Week 24 | toenail ravuconazole concentrations versus MIC90, geometric mean [2]: exceeded MIC90 at Week 12 after the study treatment initiation and maintained at MIC90 or higher until Week 24

— US11324728B2, “Dosing regimens for the treatment of fungal infections” (Seren Pharmaceuticals Inc., priority 2017, dated 2022)
